Measurements reported in ChEMBL document CHEMBL3217721 (Medchemcomm, 2012).
Activity calls are given as the source filed them. The rule behind the calls is not given here.

Legend:
SK-OV-3 = experiment: Growth inhibition of human SKOV3 cells by sulforhodamine B assay; format: functional
DU-145 = experiment: Growth inhibition of human DU145 cells by sulforhodamine B assay; format: functional
Tubulin = Tubulin (Bos taurus, UniProt Q6B856+Q862L2+Q862F3); experiment: Inhibition of bovine brain tubulin polymerization after 20 mins by spectrophotometric analysis
NCI-H460 = experiment: Growth inhibition of human NCI-H460 cells by sulforhodamine B assay; format: functional
HUVEC [1] = experiment: Vascular disrupting activity in HUVEC assessed as disruption of capillary-like network of tubules at 0.01 to 1 uM after 2 hrs by matrigel assay; format: functional, cell-based; details: Homo sapiens
HUVEC [2] = experiment: Vascular disrupting activity in HUVEC assessed as disruption of capillary-like network of tubules at 1 uM after 2 hrs by matrigel assay; format: functional, cell-based; details: Homo sapiens
HUVEC [3] = experiment: Vascular disrupting activity in HUVEC assessed as disruption of capillary-like network of tubules at 0.01 to 0.1 uM after 2 hrs by matrigel assay; format: functional, cell-based; details: Homo sapiens
HUVEC [4] = experiment: Vascular disrupting activity in HUVEC assessed as cell rounding at 1 uM after 2 hrs by matrigel assay; format: functional, cell-based; details: Homo sapiens
Tubulin (Homo sapiens) [5] = biological target: T1, Tubulin (Homo sapiens) (UniProt P68371+Q9H4B7+P0DPH7+P68366+Q13509+Q71U36+P04350+Q3ZCM7+P07437+P68363+Q9BQE3+Q6PEY2+Q13885+Q9BVA1+Q9BUF5); experiment: Displacement of [3H]-Colchicine from tubulin (unknown origin) at 5 uM relative to control; format: protein-complex assay
HUVEC [6] = experiment: Vascular disrupting activity in HUVEC assessed as disruption of capillary-like network of tubules after 2 hrs by matrigel assay; format: functional, cell-based; details: Homo sapiens
HUVEC [7] = experiment: Vascular disrupting activity in HUVEC assessed as cell rounding at 0.1 to 1 uM after 2 hrs by matrigel assay; format: functional, cell-based; details: Homo sapiens
Tubulin (Homo sapiens) [8] = biological target: T1, Tubulin (Homo sapiens); experiment: Displacement of [3H]-Colchicine from tubulin (unknown origin) at 1 uM relative to control; format: protein-complex assay

`COc1ccc2c(c1N)CCCC=C2c1cc(OC)c(OC)c(OC)c1` [listing 1 of 3 here] gave a GI50 (SK-OV-3) of 0.0329 nM, a GI50 (DU-145) of 1.11 nM and an IC50 (Tubulin) of 1200 nM.
Molecule `COc1ccc(/C=C\c2cc(OC)c(OC)c(OC)c2)c(O)c1O` [COMBRETASTATIN A-1] has a GI50 (SK-OV-3) of 38 nM, a GI50 (NCI-H460) of 15 nM and a GI50 (DU-145; Homo sapiens, DU-145) of 33 nM.
In the case of `COc1ccc(/C=C\c2cc(OC)c(OC)c(OC)c2)cc1O` [COMBRETASTATIN A4], the Activity (HUVEC [1]) is reported as “Active”, the GI50 (SK-OV-3) is reported as 0.42 nM and the GI50 (NCI-H460) is reported as 2.8 nM. It also gave a GI50 (DU-145; Homo sapiens, DU-145) of 0.54 nM.
`COc1cc(C2=CCCCc3c2ccc(OC)c3[N+](=O)[O-])cc(OC)c1OC` was tested, and the Activity (HUVEC [2]) was “Active”, the Activity (HUVEC [3]) was “inactive” and the GI50 (SK-OV-3) was 152 nM. The GI50 (NCI-H460) was 216 nM, the Activity (HUVEC [4]) was “Active” and the inhibition (Tubulin (Homo sapiens) [5]) was 63%. For the same molecule, the GI50 (DU-145; Homo sapiens, DU-145) was 211 nM and the IC50 (Tubulin) was 2500 nM.
For `COc1ccc2c(c1N)CCCC=C2c1cc(OC)c(OC)c(OC)c1` [listing 2 of 3 here], the Activity (HUVEC [6]) was “Dose-dependent effect”, the inhibition (Tubulin (Homo sapiens) [5]) was 91% and the Activity (HUVEC [7]) was “Active”. For the same molecule, the inhibition (Tubulin (Homo sapiens) [8]) was 65%.
`COc1ccc2c(c1N)CCCC=C2c1cc(OC)c(OC)c(OC)c1` [listing 3 of 3 here] gave a GI50 (DU-145) of 3.53 nM.
